We go through 17 compounds from patent US20090192176A1, “1H-PYRAZOLO[3,4-D]PYRIMIDINE, PURINE, 7H-PURIN-8(9H)-ONE, 3H-[1,2,3]TRIAZOLO[4,5-D]PYRIMIDINE, AND THIENO[3,2-D]PYRIMIDINE COMPOUNDS, THEIR USE AS mTOR KINASE AND PI3 KINASE INHIBITORS, AND THEIR SYNTHESES” (Wyeth, priority 2008, published 2009).

For orientation: IC50 means the midpoint of a concentration-inhibition curve.

Type in all cases: biochemical
One assay concerns the target PI3 Kinase α (Homo sapiens, UniProt P42336). As to the kind of experiment: Fluorescence polarization assay for PI3K. How it is done: (§1) Fluorescence Polarization Assay for PI3K
(§2) This assay is used to determine the IC50 of compounds of the present invention as it identifies inhibitors of PI3 kinase by measuring inhibition.
(§3) Reaction Buffer: 20 mM HEPES, pH 7.5, 2 mM MgCl2, 0.05% CHAPS; and 0.01% BME (added fresh) Stop/Detection Buffer: 100 mM HEPES, pH 7.5, 4 mM EDTA, 0.05% CHAPS; ATP 20 mM in water; PIP2 (diC8, cat# P-4508) 1 mM in water (MW=856.5); GST-GRP 1.75 mg/mL or 1.4 mg/mL in 10% glycerol; Red detector (TAMRA) 2.5 μM; Plate: Nunc 384 well black polypropylene fluorescence plate.
(§4) The assay is run by placing 5 μL of diluted enzyme per well, then 5 μL of diluted compound (or 9.5 μL enzyme then 0.5 μL compound in DMSO) is added and mixed. Then, 10 μL substrate is added to start the reaction. The samples are incubated 30-60 minutes, then the reaction is stopped by adding 20 μL stop/detector mix. PI3K is diluted with reaction buffer (e.g., 5 μL or 7.5 μL PI3K into 620 μL reaction buffer), and 5 μL of diluted enzyme is used per well. 5 μL reaction buffer or drug diluted in buffer (e.g., 4 μL/100 so final DMSO is 1% in reaction) is added to each. Pipetting up and down mixes the samples. Alternatively, the enzyme can be diluted to 1215 μL. In this case 9.8 μL is added per well and 0.2 μL compound is added in DMSO. To prepare 1 mL of substrate solution, 955 μL reaction buffer, 40 μL PIP2, and 2.5 μL ATP are mixed. 10 μL of substrate is added to each well to start the reaction.
(§5) Stop/detector mix is prepared by mixing 4 μL Red detector and 1.6 μL or 2.0 μL GST-GRP with 1 mL Stop buffer, which results in 10 nM probe and 70 nM GST-GRP). 20 μL of the stop/detector mix is added to each well to stop the reaction. The plates are read after 30-90 minutes keeping the red probe solutions dark. For the zero time point, stop/detector mix is added to the enzyme just before adding substrate. For an extra control, stop/detector mix is added to buffer (no enzyme) and substrate or to just buffer (no substrate). […] The recommended reaction has 0.06 μL per 20 μL (0.015 μg/20 μL) or 0.01125 μg/15 μL or 0.75 μg/mL. Plates are read on machines with filters for Tamra. The units are mP with no enzyme controls reading app 190-220 mP units. Fully active enzyme reduces fluorescence polarization down to 70-100 mP after 30 minutes. An active compound raises the mP values halfway to control or to 120-150 mP units.
For orientation: Polarisation of emitted light reports the rotation of a fluorescent probe.

In the next assay the target is PI3 Kinase γ (Homo sapiens, UniProt P48736). As to the kind of experiment: Fluorescence polarization assay for PI3K. The protocol: as §1, §2, §3, §4, §5
PI3 Kinase γ, sequence (P48736 whole entry): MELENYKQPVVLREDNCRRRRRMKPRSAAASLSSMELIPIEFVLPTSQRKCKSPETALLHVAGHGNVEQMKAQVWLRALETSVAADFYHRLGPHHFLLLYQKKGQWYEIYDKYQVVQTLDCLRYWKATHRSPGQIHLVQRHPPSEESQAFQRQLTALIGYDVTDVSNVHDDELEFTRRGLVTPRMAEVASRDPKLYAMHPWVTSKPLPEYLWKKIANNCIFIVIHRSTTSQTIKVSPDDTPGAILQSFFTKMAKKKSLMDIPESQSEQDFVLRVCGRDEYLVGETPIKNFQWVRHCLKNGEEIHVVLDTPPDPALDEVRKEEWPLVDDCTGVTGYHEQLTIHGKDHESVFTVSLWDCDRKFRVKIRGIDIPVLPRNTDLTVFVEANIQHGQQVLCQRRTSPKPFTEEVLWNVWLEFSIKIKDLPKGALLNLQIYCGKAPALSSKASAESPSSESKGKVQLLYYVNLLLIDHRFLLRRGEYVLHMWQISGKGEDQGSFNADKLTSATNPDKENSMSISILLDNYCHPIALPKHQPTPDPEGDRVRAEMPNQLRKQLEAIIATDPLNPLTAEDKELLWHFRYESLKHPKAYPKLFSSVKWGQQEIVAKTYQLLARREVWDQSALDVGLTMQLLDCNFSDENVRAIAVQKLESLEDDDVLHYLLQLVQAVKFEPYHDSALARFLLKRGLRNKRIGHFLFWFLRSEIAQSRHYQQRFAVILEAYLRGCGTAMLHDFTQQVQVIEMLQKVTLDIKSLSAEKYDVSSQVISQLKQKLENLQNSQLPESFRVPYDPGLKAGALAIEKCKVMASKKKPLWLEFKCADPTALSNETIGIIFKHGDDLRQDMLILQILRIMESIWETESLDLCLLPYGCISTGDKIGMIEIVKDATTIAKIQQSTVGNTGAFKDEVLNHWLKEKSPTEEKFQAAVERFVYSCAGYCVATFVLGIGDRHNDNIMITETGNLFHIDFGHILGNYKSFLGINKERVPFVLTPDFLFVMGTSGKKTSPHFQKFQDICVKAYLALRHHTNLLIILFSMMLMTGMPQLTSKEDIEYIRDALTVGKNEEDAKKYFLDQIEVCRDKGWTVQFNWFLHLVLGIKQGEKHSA
The next assay has as its target T1, Human mTOR (Homo sapiens, UniProt P42345).
T1 construct: FLAG
Kind of assay: mTOR kinase assay (DELFIA format, purified enzyme). To be noted: His6-S6K substrate, read-out: TOR Kinase IC50. The protocol: mTOR Kinase Assay Methods
Human mTOR assays (See Toral-Barza, et al. Biochem Biophys. Res. Commun. 2005 Jun. 24; 332(1):304-10) with purified enzyme are performed in 96-well plates by DELFIA format as follows. Enzymes are first diluted in kinase assay buffer (10 mM HEPES (pH 7.4), 50 mM NaCl, 50 mM β-glycerophosphate, 10 mM MnCl2, 0.5 mM DTT, 0.25 mM microcystin LR, and […]). To each well, 12 μL of the diluted enzyme is mixed briefly with 0.5 μL test inhibitor or control vehicle dimethylsulfoxide (DMSO). The kinase reaction is initiated by adding 12.5 μL kinase assay buffer containing ATP and His6-S6K to give a final reaction volume of 25 μL containing 800 ng/mL FLAG-TOR, […] and […]. The reaction plate is incubated for 2 hours (linear at 1-6 hours) at room temperature with gentle shaking and then terminated by adding 25 μL Stop buffer (20 mM HEPES (pH 7.4), 20 mM EDTA, 20 mM EGTA). The DELFIA detection of the phosphorylated (Thr-389) His6-S6K is performed at room temperature using a monoclonal anti-P(T389)-p70S6K antibody (1A5, Cell Signaling) labeled with Europium-N1-ITC (Eu) (10.4 Eu per antibody, PerkinElmer). The DELFIA Assay buffer and Enhancement solution can be purchased from PerkinElmer. 45 μL of the terminated kinase reaction mixture is transferred to a MaxiSorp plate (Nunc) containing 55 μL PBS. The His6-S6K is allowed to attach for 2 hours after which the wells are aspirated and washed once with PBS. 100 μL of DELFIA Assay buffer with 40 ng/mL Eu-P(T389)-S6K antibody is added. The antibody binding is continued for 1 hour with gentle agitation. The wells are then aspirated and washed 4 times with PBS containing 0.05% Tween-20 (PBST). 100 μL of DELFIA Enhancement solution is added to each well and the plates are read in a PerkinElmer Victor model plate reader. Data obtained is used to calculate enzymatic activity and enzyme inhibition by potential inhibitors.

Molecules are shown by their SMILES.

PI3 Kinase α, sequence (P42336 whole entry): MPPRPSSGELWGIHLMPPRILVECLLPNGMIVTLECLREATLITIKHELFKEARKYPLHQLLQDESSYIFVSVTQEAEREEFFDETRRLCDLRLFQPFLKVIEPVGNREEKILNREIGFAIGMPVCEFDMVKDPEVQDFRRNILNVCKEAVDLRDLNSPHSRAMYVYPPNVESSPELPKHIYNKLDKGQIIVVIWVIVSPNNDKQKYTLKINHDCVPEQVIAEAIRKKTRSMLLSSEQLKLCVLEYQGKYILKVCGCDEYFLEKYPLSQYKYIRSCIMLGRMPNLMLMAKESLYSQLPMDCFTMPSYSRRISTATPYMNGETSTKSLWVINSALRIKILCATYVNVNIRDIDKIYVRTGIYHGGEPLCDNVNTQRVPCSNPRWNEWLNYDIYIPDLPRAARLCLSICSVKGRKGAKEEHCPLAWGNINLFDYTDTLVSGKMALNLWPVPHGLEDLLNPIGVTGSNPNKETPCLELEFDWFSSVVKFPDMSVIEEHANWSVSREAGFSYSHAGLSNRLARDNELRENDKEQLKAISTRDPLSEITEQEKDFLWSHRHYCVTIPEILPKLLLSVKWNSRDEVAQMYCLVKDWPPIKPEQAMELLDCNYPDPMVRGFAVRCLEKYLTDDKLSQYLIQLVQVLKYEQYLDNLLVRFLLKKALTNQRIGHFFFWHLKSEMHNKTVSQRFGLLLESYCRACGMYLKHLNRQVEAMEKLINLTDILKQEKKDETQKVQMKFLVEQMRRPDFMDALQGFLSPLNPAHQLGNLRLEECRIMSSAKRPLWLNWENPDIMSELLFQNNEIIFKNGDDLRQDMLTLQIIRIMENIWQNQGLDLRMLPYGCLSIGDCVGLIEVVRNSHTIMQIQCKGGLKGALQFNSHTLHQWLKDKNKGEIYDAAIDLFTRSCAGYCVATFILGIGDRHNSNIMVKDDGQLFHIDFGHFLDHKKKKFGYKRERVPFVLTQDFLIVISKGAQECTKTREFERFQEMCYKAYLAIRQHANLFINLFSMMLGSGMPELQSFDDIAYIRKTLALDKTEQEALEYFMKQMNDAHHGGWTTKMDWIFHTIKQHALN
PI3 Kinase α, sequence (P27986 whole entry partner): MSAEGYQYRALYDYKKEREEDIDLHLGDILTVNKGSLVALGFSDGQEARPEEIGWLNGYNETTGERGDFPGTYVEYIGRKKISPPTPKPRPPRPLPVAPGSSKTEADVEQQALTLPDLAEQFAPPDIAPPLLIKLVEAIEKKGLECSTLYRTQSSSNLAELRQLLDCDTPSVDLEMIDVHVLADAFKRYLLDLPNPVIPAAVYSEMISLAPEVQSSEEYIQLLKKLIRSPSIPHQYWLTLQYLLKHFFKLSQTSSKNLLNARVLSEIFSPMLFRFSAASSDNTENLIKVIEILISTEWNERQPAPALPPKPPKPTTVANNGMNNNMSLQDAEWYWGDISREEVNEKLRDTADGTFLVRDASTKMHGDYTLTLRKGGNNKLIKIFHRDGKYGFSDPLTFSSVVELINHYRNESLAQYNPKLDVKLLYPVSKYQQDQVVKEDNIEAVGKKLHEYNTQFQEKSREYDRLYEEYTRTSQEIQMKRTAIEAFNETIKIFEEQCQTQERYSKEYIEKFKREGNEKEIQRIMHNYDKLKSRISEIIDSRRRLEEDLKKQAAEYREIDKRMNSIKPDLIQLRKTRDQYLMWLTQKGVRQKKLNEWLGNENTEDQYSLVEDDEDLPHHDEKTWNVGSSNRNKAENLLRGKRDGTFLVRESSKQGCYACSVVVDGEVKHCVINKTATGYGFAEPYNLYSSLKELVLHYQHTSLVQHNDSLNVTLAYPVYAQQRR

Regarding `O=C(Nc1ccc(-c2nc(C3=CCOCC3)c3ncn(C4CCN(Cc5ccc[nH]5)CC4)c3n2)cc1)NC1CCN(C(=O)OCc2ccccc2)CC1` [Compound 27, benzyl 4-{[(4-{6-(3,6-dihydro-2H-pyran-4-yl)-9-[1-(1H-pyrrol-2-ylmethyl)piperidin-4-yl]-9H-purin-2-yl}phenyl)carbamoyl]amino}piperidine-1-carboxylate], the 50% inhibitory concentration (IC50) at PI3 Kinase α is 3030 nM; at PI3 Kinase γ, 1080 nM; on Human mTOR, more than 4000 nM.

Take `Oc1cncc(-c2nc(C3=CCOCC3)c3ncn(C4CCN(Cc5ccccc5)CC4)c3n2)c1` [Compound 28, 5-[9-(1-benzylpiperidin-4-yl)-6-(3,6-dihydro-2H-pyran-4-yl)-9H-purin-2-yl]pyridin-3-ol]: the IC50 against PI3 Kinase α was found to be 384 nM; against PI3 Kinase γ, 2400 nM; at Human mTOR it was 3600 nM.

As to `Oc1cncc(-c2nc(C3=CCOCC3)c3ncn(C4CCN(Cc5cccnc5)CC4)c3n2)c1` [Compound 29, 5-{6-(3,6-dihydro-2H-pyran-4-yl)-9-[1-(pyridin-3-ylmethyl)piperidin-4-yl]-9H-purin-2-yl}pyridin-3-ol], the IC50 on PI3 Kinase α was determined as 525 nM; against PI3 Kinase γ, 2490 nM; at Human mTOR it was 2400 nM.

As to `Oc1cncc(-c2nc(C3=CCOCC3)c3ncn(C4CCN(Cc5ccc(Br)nc5)CC4)c3n2)c1` [Compound 30, 5-[9-{1-[(6-bromopyridin-3-yl)methyl]piperidin-4-yl}-6-(3,6-dihydro-2H-pyran-4-yl)-9H-purin-2-yl]pyridin-3-ol], the IC50 against PI3 Kinase α came out at 275 nM; against PI3 Kinase γ, 2470 nM; on Human mTOR it was 2000 nM.

Turning to `Oc1cncc(-c2nc(C3=CCOCC3)c3ncn(C4CCN(Cc5ccccn5)CC4)c3n2)c1` [Compound 31, 5-{6-(3,6-dihydro-2H-pyran-4-yl)-9-[1-(pyridin-2-ylmethyl)piperidin-4-yl]-9H-purin-2-yl}pyridin-3-ol], the half-inhibitory concentration (IC50) against PI3 Kinase α was 619 nM; against PI3 Kinase γ it was 2990 nM; at Human mTOR it was 1600 nM.

For `COc1ccc(CN2CCC(n3cnc4c(C5=CCOCC5)nc(-c5cncc(O)c5)nc43)CC2)cn1` [Compound 32, 5-[6-(3,6-dihydro-2H-pyran-4-yl)-9-{1-[(6-methoxypyridin-3-yl)methyl]piperidin-4-yl}-9H-purin-2-yl]pyridin-3-ol], the half-inhibitory concentration (IC50) against PI3 Kinase α was found to be 858 nM; on PI3 Kinase γ it was 2530 nM; at Human mTOR it was 1700 nM.

In the case of `Oc1cncc(-c2nc(C3=CCOCC3)c3ncn(C4CCN(Cc5c[nH]c6ccc(F)cc56)CC4)c3n2)c1` [Compound 33, 5-[6-(3,6-dihydro-2H-pyran-4-yl)-9-{1-[(5-fluoro-1H-indol-3-yl)methyl]piperidin-4-yl}-9H-purin-2-yl]pyridin-3-ol], the half-maximal inhibitory concentration (IC50) was 265 nM against PI3 Kinase α, 385 nM on PI3 Kinase γ and 12000 nM on Human mTOR.

For `Nc1ncccc1CN1CCC(n2cnc3c(C4=CCOCC4)nc(-c4cncc(O)c4)nc32)CC1` [Compound 34, 5-[9-{1-[(2-aminopyridin-3-yl)methyl]piperidin-4-yl}-6-(3,6-dihydro-2H-pyran-4-yl)-9H-purin-2-yl]pyridin-3-ol], the IC50 on PI3 Kinase α was found to be 526 nM; on PI3 Kinase γ it was 1500 nM; on Human mTOR, 13000 nM.

As for `COc1ncccc1CN1CCC(n2cnc3c(C4=CCOCC4)nc(-c4cncc(O)c4)nc32)CC1` [Compound 36, 5-[6-(3,6-dihydro-2H-pyran-4-yl)-9-{1-[(2-methoxypyridin-3-yl)methyl]piperidin-4-yl}-9H-purin-2-yl]pyridin-3-ol], the concentration for half-maximal inhibition (IC50) against PI3 Kinase α was 506 nM; against PI3 Kinase γ, 2480 nM; on Human mTOR it was 2800 nM.

As to `Oc1cncc(-c2nc(C3=CCOCC3)c3ncn(C4CCN(Cc5ccc(Cl)nc5)CC4)c3n2)c1` [Compound 37, 5-[9-{1-[(6-chloropyridin-3-yl)methyl]piperidin-4-yl}-6-(3,6-dihydro-2H-pyran-4-yl)-9H-purin-2-yl]pyridin-3-ol], the IC50 against PI3 Kinase α stood at 437 nM; against PI3 Kinase γ it was 719 nM; on Human mTOR, 1600 nM.

As for `O=c1[nH]c2nc(-c3cccc(O)c3)nc(C3=CCOCC3)c2[nH]1` [Compound 38, 6-(3,6-dihydro-2H-pyran-4-yl)-2-(3-hydroxyphenyl)-7,9-dihydro-8H-purin-8-one], the IC50 against PI3 Kinase α amounted to 152 nM; on PI3 Kinase γ it was 543 nM; at Human mTOR it was 190 nM.

`O=c1[nH]c2nc(-c3cccc(CO)c3)nc(C3=CCOCC3)c2[nH]1` [Compound 39, 6-(3,6-dihydro-2H-pyran-4-yl)-2-[3-(hydroxymethyl)phenyl]-7,9-dihydro-8H-purin-8-one]: the IC50 against PI3 Kinase α worked out at 524 nM; against PI3 Kinase γ, 819 nM; at Human mTOR, 1300 nM.

With `Oc1cccc(-c2nc(C3=CCOCC3)c3ncn(C4CCNCC4)c3n2)c1` [Compound 40, 3-[6-(3,6-dihydro-2H-pyran-4-yl)-9-piperidin-4-yl-9H-purin-2-yl]phenol], the concentration for half-maximal inhibition (IC50) at PI3 Kinase α stood at 540 nM; against PI3 Kinase γ, 3160 nM; on Human mTOR, 1400 nM.

With `CNC(=O)Nc1ccc(-c2nc(C3=CCOCC3)c3ncn(C4CCN(Cc5ccc[nH]5)CC4)c3n2)cc1` [Compound 41, 1-(4-{6-(3,6-dihydro-2H-pyran-4-yl)-9-[1-(1H-pyrrol-2-ylmethyl)piperidin-4-yl]-9H-purin-2-yl}phenyl)-3-methylurea], the IC50 on PI3 Kinase α amounted to 543 nM; against PI3 Kinase γ, 3110 nM; on Human mTOR, 130 nM.

Turning to `OCc1cccc(-c2nc(C3=CCOCC3)c3ncn(C4CCNCC4)c3n2)c1` [Compound 43, {3-[6-(3,6-dihydro-2H-pyran-4-yl)-9-piperidin-4-yl-9H-purin-2-yl]phenyl}methanol], the IC50 is 574 nM on PI3 Kinase α, 2060 nM against PI3 Kinase γ and more than 4000 nM at Human mTOR.

With `Oc1cncc(-c2nc(C3=CCOCC3)c3ncn(C4CCNCC4)c3n2)c1` [Compound 44, 5-[6-(3,6-dihydro-2H-pyran-4-yl)-9-piperidin-4-yl-9H-purin-2-yl]pyridin-3-ol], the results for the concentration for half-maximal inhibition (IC50) against PI3 Kinase α, against PI3 Kinase γ and on Human mTOR were 628 nM, 2630 nM and 4800 nM, respectively.

Turning to `OCc1cccc(-c2nc(C3=CCOCC3)c3ncn(CCN4CCCCC4)c3n2)c1` [Compound 45, {3-[6-(3,6-dihydro-2H-pyran-4-yl)-9-(2-piperidin-1-ylethyl)-9H-purin-2-yl]phenyl}methanol], the IC50 on PI3 Kinase α was 1350 nM; at PI3 Kinase γ it was 9000 nM; on Human mTOR, more than 4000 nM.
